# Experimental data published in patent US10125125B2, “N-(heteroaryl)-sulfonamide derivatives useful as S100-inhibitors” (Active Biotech AB, priority 2013, dated 2018).
# Molecular target: biotinylated human S100A9 : rhRAGE-Fc interaction (Homo sapiens (Human), UniProt P06702)
# Test: AlphaScreen inhibition assay, Biot-hS100A9:hRAGE-Fc (S100A9-RAGE inhibition assay)
# Assay type: binding
# Text: FIG. 1 is a schematic representation of an assay of the inhibition of the interaction between biotinylated human S100A9 and human RAGE-Fc using a small molecule S100A9 binder.
# Inhibition Assay, Biot-hS100A9:hRAGE-Fc
# The AlphaScreen (Amplified Luminescent Proximity Homogeneous Assay) contains two types of beads, Alpha Donor beads and Acceptor beads (PerkinElmer). Upon laser excitation at 680 nm a photosensitizer in the Donor bead converts ambient oxygen to a more excited singlet state. The singlet oxygen molecule diffuses (maximum 200 nm) to react with a thioxene derivative in the Acceptor bead and generates a chemiluminescence reaction. Fluorophores in the Acceptor bead subsequently emit light at 520-620 nm which can be detected in the EnVision® Multilabel plate Reader (PerkinElmer). The beads are light sensitive and all work with the beads is performed under subdued light conditions or using green filters on light sources (Roscolux Chroma Green #389, Rosco).
# In the AlphaScreen Inhibition Assay described here, protein A (Staphylococcus aureus) conjugated Acceptor beads are used together with streptavidin coated Donor beads (Perkin Elmer 6760617M). The Acceptor beads are pre-incubated with Fc-tagged recombinant human RAGE (rhRAGE-Fc) allowing binding of the rhRAGE-Fc to protein A on the beads. Biotinylated human S100A9 (biot-hS100A9) is pre-incubated with the low molecular test compounds. The pre-mixes are then added to the wells of a micro-plate and incubated allowing interaction between biot-hS100A9 and rhRAGE-Fc. Subsequent addition of streptavidin coated Donor beads causes binding of the streptavidin to the biotinylated hS100A9. After an additional incubation the signal is measured.
# Without inhibitory compounds, the interaction of biot-hS100A9 to rhRAGE-Fc will bring the Acceptor and Donor beads in close proximity thus generating a high signal. With an inhibitor present the complex will not form resulting in a decreased signal.
# Chemicals and reagents. • AlphaScreen® General IgG (Protein A) Detection Kit, (PerkinElmer 6760617M) • HBS-P buffer (GE Healthcare, BR-1003-68) • HBS-N buffer (GE Healthcare, BR-1003-69) • CaCl2 in HBS-P • ZnCl2 in Milli-Q water • DMSO • Biotinylated hS100A9, (biotinylated via cystein by EZ-link Iodoacetyl-PEG2-Biotin reagent (Pierce no. 21334), in HBS-N • rhRAGE-Fc (R&D Systems, 1145-RG-50), in HBS-P
# The AlphaScreen assay method is used for screening of the inhibitory effect of different compound samples at fixed concentrations or for IC50 determination by varying the compound concentrations. Samples of test compounds and references are prepared from solutions in DMSO. Relevant reference inhibitors and DMSO are used as controls for defined inhibition and non-inhibition, respectively in the assay. The percent inhibition in assay for test compounds and references are calculated by comparing their obtained assay signals with the signal values for the control with only DMSO (no compound).
# Assay concentration of biotinylated hS100A9 and rhRAGE-Fc are batch dependent, and are determined and defined by separate cross-titration experiments using this AlphaScreen inhibition method to verify the optimal setup regarding signal strength and achievement of a defined inhibition with relevant reference compounds. The Final assay concentrations of Acceptor and Donor beads are 20 μg/mL.
# Experimental Set Up for Screening, Preparation of Solutions and Beads.
# Assay buffer is prepared by adding CaCl2 and ZnCl2 to HBS-P and is used freshly prepared in the experiment.
# Biotin-hS100A9 solution for the experiment is prepared by dilution of appropriate amount of stock solution biot-hS100A9 in assay buffer (with CaCl2 and ZnCl2) and incubation in room temperature for 30 minutes.
# rhRAGE-Fc solution for the experiment is prepared by dilution appropriate amount of rhRAGE-Fc stock in assay buffer.
# Protein A Acceptor beads are diluted in assay buffer and are added to an equal volume of the prepared diluted rhRAGE-Fc solution.
# biotinylated human S100A9 : rhRAGE-Fc interaction, sequence (P06702 whole entry): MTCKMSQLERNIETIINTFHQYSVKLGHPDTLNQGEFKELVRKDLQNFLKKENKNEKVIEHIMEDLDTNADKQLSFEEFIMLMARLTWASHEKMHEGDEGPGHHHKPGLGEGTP
row,SMILES,IC50 [nM]
1,"CC(C)c1cnc(NS(=O)(=O)c2cnc(Cl)c(Br)c2)c(O)c1 [Example 11, 5-bromo-6-chloro-N-[3-hydroxy-5-(propan-2-yl)pyridin-2-yl]pyridine-3-sulfonamide]",> 1000
2,"O=S(=O)(Cc1cc(Cl)sc1Cl)Nc1ncc(Cl)cc1O [Example 20, N-(5-chloro-3-hydroxypyridin-2-yl)-1-(2,5-dichlorothiophen-3-yl)methane-sulfonamide]",< 1000
3,"O=S(=O)(Nc1ncc(Cl)cc1O)c1cncc(Br)c1 [Example 40, 5-bromo-N-(5-chloro-3-hydroxypyridin-2-yl)pyridine-3-sulfonamide]",3000
4,"O=S(=O)(Nc1ncc(Cl)cc1O)c1ccc(C(F)(F)F)nc1 [Example 41, N-(5-chloro-3-hydroxypyridin-2-yl)-6-(trifluoromethyl)pyridine-3-sulfonamide]",> 1000
5,"COc1ncc(S(=O)(=O)Nc2cncc(Cl)c2O)cc1Br [Example 59, 5-bromo-N-(5-chloro-4-hydroxypyridin-3-yl)-6-methoxypyridine-3-sulfonamide]",2800
6,"COc1ncc(S(=O)(=O)Nc2cnccc2O)cc1Br [Example 62, 5-bromo-N-(4-hydroxypyridin-3-yl)-6-methoxypyridine-3-sulfonamide]",4400
7,"O=S(=O)(Nc1cnccc1O)c1cc(Cl)sc1Cl [Example 63, 2,5-dichloro-N-(4-hydroxypyridin-3-yl)thiophene-3-sulfonamide]",4600
8,"O=S(=O)(Nc1cc(Cl)cnc1O)c1cc(Cl)sc1Cl [Example 74, 2,5-dichloro-N-(5-chloro-2-hydroxypyridin-3-yl)thiophene-3-sulfonamide]",2600
9,"O=S(=O)(Cc1ccc(F)c(F)c1)Nc1nnc(Cl)cc1O [Example 76, N-(6-chloro-4-hydroxypyridazin-3-yl)-1-(3,4-difluorophenyl)methanesulfonamide]",< 1000
10,"CCS(=O)(=O)c1cnc(NS(=O)(=O)Cc2cccc(Cl)c2)c(O)n1 [Example 88, 1-(3-chlorophenyl)-N-[5-(ethanesulfonyl)-3-hydroxypyrazin-2-yl]methane-sulfonamide]",> 1000
11,"O=S(=O)(Nc1cncc(Cl)c1O)c1cc(Cl)cc(Cl)c1 [Example 89, 3,5-dichloro-N-(5-chloro-4-hydroxypyridin-3-yl)benzene-1-sulfonamide]",2100

# Now from value to molecule:
row,IC50 [nM],SMILES
1,< 1000,"O=S(=O)(Nc1ncc(Br)nc1O)C(c1cc(Cl)cc(Cl)c1)C(F)(F)F (racemic) [Example 141, (+/−)-N-(5-bromo-3-hydroxypyrazin-2-yl)-1-(3,5-dichlorophenyl)-2,2,2-trifluoroethane-1-sulfonamide]"
2,140,"CS(=O)(=O)c1cnc(NS(=O)(=O)Cc2cc(Cl)cc(Cl)c2)c(O)c1 [Example 32, 1-(3,5-dichlorophenyl)-N-(3-hydroxy-5-methanesulfonylpyridin-2-yl)methane-sulfonamide]"
3,100,"O=S(=O)(Cc1cc(Cl)cc(Cl)c1)Nc1nnc(Cl)cc1O [Example 36, N-(6-chloro-4-hydroxypyridazin-3-yl)-1-(3,5-dichlorophenyl)methanesulfonamide]"
4,800,"O=S(=O)(Cc1ccc(Cl)c(Cl)c1)Nc1cnc(Cl)cc1O [Example 70, N-(6-chloro-4-hydroxypyridin-3-yl)-1-(3,4-dichlorophenyl)methanesulfonamide]"
5,980,"N#Cc1ccc(Cl)c(CS(=O)(=O)Nc2nnc(Cl)cc2O)c1 [Example 85, N-(6-chloro-4-hydroxypyridazin-3-yl)-1-(2-chloro-5-cyanophenyl)methane-sulfonamide]"
6,300,"O=S(=O)(Cc1cc(F)cc(Cl)c1)Nc1nnc(Cl)cc1O [Example 94, N-(6-chloro-4-hydroxypyridazin-3-yl)-1-(3-chloro-5-fluorophenyl)methane-sulfonamide]"
7,700,"O=S(=O)(Nc1nnc(Cl)cc1O)c1cc(Cl)cc(Cl)c1 [Example 95, 3,5-dichloro-N-(6-chloro-4-hydroxypyridazin-3-yl)benzene-1-sulfonamide]"
